In publication PMC8269059, “Glycyrrhizin Derivatives Suppress Cancer Chemoresistance by Inhibiting Progesterone Receptor Membrane Component 1” (Cancers, 2021):
Values joined by “and” are separate entries in the source; they are usually repeats but may differ in a detail not shown here. Equal entries are not always repeated. “Also recorded” adds a separate entry of the source. Where two headings read alike, the source gives them in different places.

What was measured:
[1] = molecular target: T1, heme-dimerized PGRMC1 (Homo sapiens, UniProt O00264); assay: ITC binding to heme-dimerized PGRMC1; settings: ITC; for Kd / KD: 298 K, 50 mM phosphate pH 7.0, heme-dimerized PGRMC1 (WT); for TΔS / ΔG / ΔH: heme-dimerized PGRMC1 (WT)
T1 construct: human PGRMC1 intracellular domain residues 43-195; GST (N, cleaved yes); made in house; host or cells: E. coli BL21 (DE3)
T1 sequence (O00264 43-195): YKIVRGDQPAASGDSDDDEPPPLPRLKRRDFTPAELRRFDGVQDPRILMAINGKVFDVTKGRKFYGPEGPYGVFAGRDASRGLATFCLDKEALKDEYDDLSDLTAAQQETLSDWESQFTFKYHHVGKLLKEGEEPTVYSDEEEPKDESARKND

[2] = tested on: HCT116 cells; assay: Chemosensitivity MTT assay in HCT116 cells; assay type: cell-based, human; settings: for IC50: Homo sapiens, HCT-116, HCT116 cell viability, MTT; for Anti-proliferative / anti-cancer effect with anti-cancer agents: HCT116, MTT, with erlotinib or CDDP, compared with GL
[3] = tested on: GFP-fused PGRMC1 protein partially purified from granulosa cells; settings: competitive binding with labeled-progesterone; cited from earlier work
[4] = tested on: HCT116 cells xenograft; assay: HCT116 xenograft in nude mice; assay type: in vivo, mouse; settings: i.p. twice a week, 22 days, CDDP 2 mg/kg, GL 400 mg/kg, vs control
Description: All protocols for animal experiments in this study were approved by the Experimental Animal Committee of Keio University School of Medicine (approval number: 08024-(13), approval date: 30 September 2020). HCT116 cells (2 × 10^6 cells/mouse) with half of Matrigel (Corning, NY, USA) were transplanted subcutaneously into the flank of 7-week-old nude mice. Four days after the transplantation, tumor size was measured in three dimensions with calipers and grouped by tumor volume. CDDP (2 mg/kg), GL (400 mg/kg), or GlucoGL (100 mg/kg) were administered to the mice intraperitoneally, and the tumor volume was measured twice a week for 22 days.

[5] = molecular target: T2, apo-PGRMC1 (Homo sapiens, UniProt O00264); assay: ITC binding to apo-PGRMC1; settings: apo-monomer form
T2 construct: human PGRMC1 intracellular domain residues 43-195; GST (N, cleaved yes); made in house; host or cells: E. coli BL21 (DE3)
T2 sequence (O00264 43-195): as above
Source text: Bacterial expression vectors pGEX-PGRMC1 (human PGRMC1 intracellular domain residues 43-195) and mammalian FLAG-tagged expression vector pCMV-FLAG-PGRMC1 (full-length) were constructed as described previously. Expression vectors for PGRMC1 point mutants were generated by site-directed mutagenesis with PCR. For construction of HMGB1 expression vector, human HMGB1 full-length cDNA was cloned from cDNA library of HCT116 cells using the primers (Forward: 5′-[…]-3′, Reverse: 5′-[…]-[…]-3′), digested with Bam HI and Sal I, and then ligated into pGEX6P1.
Expression vectors (pGEX-PGRMC1 (residues 43-195) or pGEX-HMGB1) were transformed into BL21 (DE3) competent E. coli cells, and the cells incubated in LB medium with ampicillin at 37 °C until the OD600 reached 0.8. Protein expression was induced by adding 1 mM isopropyl-β-thiogalactopyranoside (IPTG) and incubating at 37 °C for 4 h. […]
ITC experiments were performed at 298 K with ITC-Buffer (50 mM phosphate [pH 7.0]) using a MicroCal iTC200 (Malvern Panalytical, Malvern, UK). […] Binding isotherms were analyzed using SEDPHAT [35]. The binding of AG205 to apo- or heme-PGRMC1 (100 μM) was analyzed using a concentration of 3 mM containing 1% DMSO. […]

[6] = with CDDP (10 µM), read-out: IC50 CDDP
[7] = with erlotinib (20 µM), read-out: IC50 Erlotinib

Compound	Kd [1]	TΔS [1] [K·kcal/mol]	ΔG [1] [kcal/mol]	ΔH [1] [kcal/mol]	IC50 [2, 6] [µM]	IC50 [2, 7] [µM]	Anti-proliferative / anti-cancer effect with anti-cancer agents [2]	KD [1]	other results
CC1(C(=O)O)CCC2(C)CCC3(C)C(=CC(=O)C4C5(C)CCC(OC6OC(C(=O)O)C(O)C(O)C6O)C(C)(C)C5CCC43C)C2C1 (centres unmarked) [Glycyrrhetinic acid-3-O-mono-glucuronide]	9.55 µM	6.23	-6.85	-0.62	41.2	50.5			
CC1(C(=O)O)CCC2(C)CCC3(C)C(=CC(=O)C4C5(C)CCC(OC6OC(C(=O)O)C(O)C(O)C6OC6OCC(O)C(O)C6O)C(C)(C)C5CCC43C)C2C1 (centres unmarked) [Araboglycyrrhizin]	8.46 µM	5.90	-6.93	-1.03	26.6	35.3	potent anti-cancer effects		
CC(=O)[C@H]1CC[C@H]2[C@@H]3CCC4=CC(=O)CC[C@]4(C)[C@H]3CC[C@]12C [Progesterone]	815 µM and 816 µM		-4.22	-23.26					Kd [3]: 0.035 µM
CC1(C)[C@@H](O)CC[C@]2(C)[C@H]3C(=O)C=C4[C@@H]5C[C@@](C)(C(=O)O)CC[C@]5(C)CC[C@@]4(C)[C@]3(C)CC[C@@H]12 [Glycyrrhetinic acid (GA), Glycyrrhetinic acid]								Weak Binding	KD ([1]; listed as GA): did not detect significant binding
CC1(C(=O)O)CCC2(C)CCC3(C)C(=CC(=O)C4C5(C)CCC(OC6OC(C(=O)O)C(O)C(O)C6OC6OC(C(=O)O)C(O)C(O)C6O)C(C)(C)C5CCC43C)C2C1 (centres unmarked) [Licorice-saponin H2]							weaker anti-proliferative effects	No Binding	
CC1(C(=O)O)CCC2(C)CCC3(C)C(=CC(=O)C4C5(C)CCC(OC6OC(C(=O)O)C(O)C(O)C6OC6OCC(O)(CO)C6O)C(C)(C)C5CCC43C)C2C1 (centres unmarked) [Apioglycyrrhizin]	4.85 µM	6.18	-7.26	-1.08	35.1	62.5	potent anti-cancer effects		
CC1(C(=O)O)CCC2(C)CCC3(C)C(=CC(=O)C4C5(C)CCC(OC6OC(C(=O)O)C(O)C(O)C6OC6OC(C(=O)O)C(O)C(O)C6O)C(C)(CO)C5CCC43C)C2C1 (centres unmarked) [Licorice-saponin G2]	128 µM	4.08	-5.31	-1.23			weaker anti-proliferative effects		
CC1(C)[C@@H](OC(=O)CCC(=O)O)CC[C@]2(C)[C@H]3C(=O)C=C4[C@@H]5C[C@@](C)(C(=O)O)CC[C@]5(C)CC[C@@]4(C)[C@]3(C)CC[C@@H]12 [Carbenoxolone]							weaker anti-proliferative effects	No Binding	
[NH2][Pt]([NH2])([Cl])[Cl] [CDDP, cisplatin]									Tumor volume, administered individually [4]: no differences in tumor volume
CC1OC(OC2C(OC3C(OC4CCC5(C)C(CCC6(C)C5C(=O)C=C5C7CC(C)(C(=O)O)CCC7(C)CCC56C)C4(C)C)OC(C(=O)O)C(O)C3O)OC(CO)C(O)C2O)C(O)C(O)C1O (centres unmarked) [Rhaoglucoglycyrrhizin]	1.08 µM	6.08	-8.15	-2.07	17.2	19.1	potent anti-cancer effects		
CC12CCC3(C)C(=CC(=O)C4C5(C)CCC(OC6OC(C(=O)O)C(O)C(O)C6OC6OC(C(=O)O)C(O)C(O)C6O)C(C)(C)C5CCC43C)C1CC(C)(C(=O)O)C(O)C2 (centres unmarked) [Macedonoside A]							weaker anti-proliferative effects	No Binding	
Cc1ccc2c(c1)[C@H]1CN(C)CC[C@H]1N2C(=O)CSc1nnnn1-c1ccc(Cl)cc1 [AG205]								no binding activity; also recorded: did not observe AG205 binding	Binding to apo-PGRMC1 [5]: no binding activity; also recorded: did not observe AG205 binding
